Test results published in ChEMBL document CHEMBL1145222, “Synthesis and in vitro study of novel Mannich bases as antibacterial agents” (2005).

How the values were obtained:
Assay type in all cases: functional
Bacillus subtilis [1] = assay: Zone of inhibition of Bacillus subtilis at compound concentration of 40 mg/mL
Bacillus subtilis [2] = assay: Zone of inhibition of Bacillus subtilis at compound concentration of 80 mg/mL
[3] = system: Salmonella enterica subsp. enterica serovar Typhi; assay: Zone of inhibition of Salmonella typhae at compound concentration of 40 mg/mL
[4] = system: Salmonella enterica subsp. enterica serovar Typhi; assay: Zone of inhibition of Salmonella typhae at compound concentration of 80 mg/mL
Escherichia coli [5] = assay: Zone of inhibition Escherichia coli at compound concentration of 40 mg/mL
Escherichia coli [6] = assay: Zone of inhibition Escherichia coli at compound concentration of 80 mg/mL
Escherichia coli [7] = assay: Zone of inhibition Escherichia coli at compound concentration of 160 mg/mL
Bacillus subtilis [8] = assay: Zone of inhibition of Bacillus subtilis at compound concentration of 160 mg/mL
[9] = system: Salmonella enterica subsp. enterica serovar Typhi; assay: Zone of inhibition of Salmonella typhae at compound concentration of 160 mg/mL
Klebsiella pneumoniae [10] = assay: Zone of inhibition of Klebsiella pneumoniae at compound concentration of 40 mg/mL
Klebsiella pneumoniae [11] = assay: Zone of inhibition of Klebsiella pneumoniae at compound concentration of 80 mg/mL
Staphylococcus aureus [12] = assay: Zone of inhibition of Staphylococcus aureus at compound concentration of 40 mg/mL
Staphylococcus aureus [13] = assay: Zone of inhibition of Staphylococcus aureus at compound concentration of 80 mg/mL
Klebsiella pneumoniae [14] = assay: Zone of inhibition of Klebsiella pneumoniae at compound concentration of 160 mg/mL
Pseudomonas aeruginosa [15] = assay: Zone of inhibition of Pseudomonas aeruginosa at compound concentration of 40 mg/mL
Pseudomonas aeruginosa [16] = assay: Zone of inhibition of Pseudomonas aeruginosa at compound concentration of 80 mg/mL
Staphylococcus aureus [17] = assay: Zone of inhibition of Staphylococcus aureus at compound concentration of 160 mg/mL
Pseudomonas aeruginosa [18] = assay: Zone of inhibition of Pseudomonas aeruginosa at compound concentration of 160 mg/mL
Escherichia coli [19] = assay: Zone of inhibition Escherichia coli Escherichia coli at compound concentration of 80 mg/mL
Escherichia coli [20] = assay: Zone of inhibition Escherichia coli Escherichia coli at compound concentration of 160 mg/mL
Escherichia coli [21] = assay: Zone of inhibition of Escherichia coli at compound concentration of 40 mg/mL
Escherichia coli [22] = assay: Zone of inhibition of Escherichia coli at compound concentration of 80 mg/mL
Escherichia coli [23] = assay: Zone of inhibition of Escherichia coli at compound concentration of 160 mg/mL
Klebsiella pneumoniae [24] = assay: Zone of inhibition Klebsiella pneumoniae at compound concentration of 40 mg/mL
Klebsiella pneumoniae [25] = assay: Zone of inhibition Klebsiella pneumoniae at compound concentration of 160 mg/mL
Klebsiella pneumoniae [26] = assay: Zone of inhibition Klebsiella pneumoniae at compound concentration of 80 mg/mL

COc1ccc(Cl)cc1C(=O)NCNc1ccc(S(=O)(=O)[N-]C(C)=O)cc1.[Na+]
Inhibition (Bacillus subtilis [1]): 10.5 mm
Inhibition (Bacillus subtilis [2]): 12.5 mm
Inhibition [3]: 10.5 mm
Inhibition [4]: 14.5 mm
Inhibition (Escherichia coli [5]): 9.5 mm
Inhibition (Escherichia coli [6]): 10.5 mm
Inhibition (Escherichia coli [7]): 13 mm
Inhibition (Bacillus subtilis [8]): 16.5 mm
Inhibition [9]: 22 mm
Inhibition (Klebsiella pneumoniae [10]): 10 mm
Inhibition (Klebsiella pneumoniae [11]): 12.5 mm
Inhibition (Staphylococcus aureus [12]): 10.5 mm
Inhibition (Staphylococcus aureus [13]): 14.5 mm
Inhibition (Klebsiella pneumoniae [14]): 15.5 mm
Inhibition (Pseudomonas aeruginosa [15]): 9.5 mm
Inhibition (Pseudomonas aeruginosa [16]): 12.5 mm
Inhibition (Staphylococcus aureus [17]): 22 mm
Inhibition (Pseudomonas aeruginosa [18]): 14.5 mm

COc1ccc(Cl)cc1C(=O)NCNc1ccc(S(=O)(=O)NN)cc1
Inhibition (Bacillus subtilis [1]): 7 mm
Inhibition (Bacillus subtilis [2]): 7.5 mm
Inhibition [3]: 7 mm
Inhibition [4]: 7.5 mm
Inhibition (Escherichia coli [5]): 7 mm
Inhibition (Bacillus subtilis [8]): 11.5 mm
Inhibition [9]: 8 mm
Inhibition (Escherichia coli [19]): 7.5 mm
Inhibition (Escherichia coli [20]): 8.5 mm
Inhibition (Klebsiella pneumoniae [10]): 7 mm
Inhibition (Klebsiella pneumoniae [11]): 7.5 mm
Inhibition (Staphylococcus aureus [12]): 7.5 mm
Inhibition (Staphylococcus aureus [13]): 8.5 mm
Inhibition (Klebsiella pneumoniae [14]): 9.5 mm
Inhibition (Pseudomonas aeruginosa [15]): 7.5 mm
Inhibition (Pseudomonas aeruginosa [16]): 8 mm
Inhibition (Staphylococcus aureus [17]): 11 mm
Inhibition (Pseudomonas aeruginosa [18]): 8.5 mm

COc1ccc(Cl)cc1C(=O)NCN(C)C
Inhibition (Klebsiella pneumoniae [10]): 7 mm
Inhibition (Klebsiella pneumoniae [11]): 7.5 mm
Inhibition (Klebsiella pneumoniae [14]): 7.5 mm
Inhibition (Pseudomonas aeruginosa [15]): 7 mm
Inhibition (Pseudomonas aeruginosa [16]): 7.5 mm
Inhibition (Pseudomonas aeruginosa [18]): 7.5 mm

COc1ccc(Cl)cc1C(=O)NCN1CCOCC1
Inhibition (Escherichia coli [21]): 9.5 mm
Inhibition (Escherichia coli [22]): 10.5 mm
Inhibition (Bacillus subtilis [1]): 8.5 mm
Inhibition (Bacillus subtilis [2]): 9 mm
Inhibition (Escherichia coli [23]): 12.5 mm
Inhibition (Bacillus subtilis [8]): 10.5 mm
Inhibition (Klebsiella pneumoniae [10]): 10.5 mm
Inhibition (Klebsiella pneumoniae [11]): 12.5 mm
Inhibition (Staphylococcus aureus [12]): 11 mm
Inhibition (Staphylococcus aureus [13]): 13.5 mm
Inhibition (Klebsiella pneumoniae [14]): 14.5 mm
Inhibition (Pseudomonas aeruginosa [15]): 9.5 mm
Inhibition (Pseudomonas aeruginosa [16]): 10.5 mm
Inhibition (Staphylococcus aureus [17]): 16.5 mm
Inhibition (Pseudomonas aeruginosa [18]): 12 mm

Cc1cc(NS(=O)(=O)c2ccc(N)cc2)no1 [SULFAMETHOXAZOLE]
Inhibition (Escherichia coli [21]): 18.5 mm
Inhibition (Escherichia coli [22]): 20.5 mm
Inhibition (Bacillus subtilis [1]): 15.5 mm
Inhibition (Bacillus subtilis [2]): 18.5 mm
Inhibition [3]: 8.5 mm
Inhibition [4]: 9 mm
Inhibition (Bacillus subtilis [8]): 20 mm
Inhibition [9]: 12.5 mm
Inhibition (Klebsiella pneumoniae [10]): 8.5 mm
Inhibition (Klebsiella pneumoniae [11]): 9 mm
Inhibition (Staphylococcus aureus [12]): 19.5 mm
Inhibition (Staphylococcus aureus [13]): 20.5 mm
Inhibition (Klebsiella pneumoniae [14]): 11.5 mm
Inhibition (Staphylococcus aureus [17]): 21 mm

COc1ccc(Cl)cc1C(=O)NCN(CCO)CCO
Inhibition (Bacillus subtilis [1]): 7 mm
Inhibition (Bacillus subtilis [2]): 7.5 mm
Inhibition (Escherichia coli [5]): 7 mm
Inhibition (Escherichia coli [6]): 7.5 mm
Inhibition (Escherichia coli [7]): 8.5 mm
Inhibition (Klebsiella pneumoniae [24]): 7 mm
Inhibition (Bacillus subtilis [8]): 8.5 mm
Inhibition (Klebsiella pneumoniae [25]): 7.5 mm
Inhibition (Klebsiella pneumoniae [26]): 7.5 mm

Nc1ccc(S(=O)(=O)Nc2ncccn2)cc1 [SULFADIAZINE]
Inhibition (Escherichia coli [21]): 8.5 mm
Inhibition (Escherichia coli [22]): 9.5 mm
Inhibition (Bacillus subtilis [1]): 8.5 mm
Inhibition (Bacillus subtilis [2]): 9.5 mm
Inhibition (Escherichia coli [23]): 12.5 mm
Inhibition [3]: 7 mm
Inhibition [4]: 7.5 mm
Inhibition (Bacillus subtilis [8]): 13.5 mm
Inhibition [9]: 9 mm
Inhibition (Klebsiella pneumoniae [10]): 12.5 mm
Inhibition (Klebsiella pneumoniae [11]): 13.5 mm
Inhibition (Staphylococcus aureus [12]): 7 mm
Inhibition (Staphylococcus aureus [13]): 7.5 mm
Inhibition (Klebsiella pneumoniae [14]): 15 mm
Inhibition (Staphylococcus aureus [17]): 9.5 mm

CC(=O)[N-]S(=O)(=O)c1ccc(N)cc1.[Na+]
Inhibition (Bacillus subtilis [1]): 9.5 mm
Inhibition (Bacillus subtilis [2]): 10 mm
Inhibition (Bacillus subtilis [8]): 15 mm
Inhibition (Staphylococcus aureus [12]): 19.5 mm
Inhibition (Staphylococcus aureus [13]): 21 mm
Inhibition (Staphylococcus aureus [17]): 24 mm

COc1ccc(Cl)cc1C(=O)NCNc1ccc(S(=O)(=O)Nc2ncccn2)cc1
Inhibition (Escherichia coli [21]): 8 mm
Inhibition (Escherichia coli [22]): 8.5 mm
Inhibition (Bacillus subtilis [1]): 7 mm
Inhibition (Bacillus subtilis [2]): 7 mm
Inhibition (Escherichia coli [23]): 9.5 mm
Inhibition [3]: 7 mm
Inhibition [4]: 7 mm
Inhibition (Bacillus subtilis [8]): 7.5 mm
Inhibition [9]: 7.5 mm
Inhibition (Klebsiella pneumoniae [10]): 7.5 mm
Inhibition (Klebsiella pneumoniae [11]): 8 mm
Inhibition (Staphylococcus aureus [12]): 9.5 mm
Inhibition (Staphylococcus aureus [13]): 11.5 mm
Inhibition (Klebsiella pneumoniae [14]): 8.5 mm
Inhibition (Pseudomonas aeruginosa [15]): 7.5 mm
Inhibition (Pseudomonas aeruginosa [16]): 7.5 mm
Inhibition (Staphylococcus aureus [17]): 15 mm
Inhibition (Pseudomonas aeruginosa [18]): 8.5 mm

Nc1ccc(S(N)(=O)=O)cc1 [SULFANILAMIDE]
Inhibition (Escherichia coli [21]): 16.5 mm
Inhibition (Escherichia coli [22]): 18 mm
Inhibition (Bacillus subtilis [1]): 10.5 mm
Inhibition (Bacillus subtilis [2]): 11.5 mm
Inhibition (Escherichia coli [23]): 20.5 mm
Inhibition [3]: 7 mm
Inhibition [4]: 7.5 mm
Inhibition (Bacillus subtilis [8]): 13 mm
Inhibition [9]: 7.5 mm
Inhibition (Staphylococcus aureus [12]): 20.5 mm
Inhibition (Staphylococcus aureus [13]): 22.5 mm
Inhibition (Pseudomonas aeruginosa [15]): 13.5 mm
Inhibition (Pseudomonas aeruginosa [16]): 15.5 mm
Inhibition (Staphylococcus aureus [17]): 25 mm
Inhibition (Pseudomonas aeruginosa [18]): 17.5 mm

COc1ccc(Cl)cc1C(=O)NCN(c1ccccc1)c1ccccc1
Inhibition (Bacillus subtilis [1]): 7.5 mm
Inhibition (Bacillus subtilis [2]): 7.5 mm
Inhibition [3]: 7.5 mm
Inhibition [4]: 7.5 mm
Inhibition (Bacillus subtilis [8]): 8 mm
Inhibition [9]: 8.5 mm
Inhibition (Klebsiella pneumoniae [10]): 7 mm
Inhibition (Klebsiella pneumoniae [11]): 7 mm
Inhibition (Klebsiella pneumoniae [14]): 8 mm
